This note sets out measurements from patent US20130035326A1 (AMBIT BIOSCIENCES CORPORATION, priority 2009, published 2013).

As a reminder, the Kd is the constant that tells how readily two partners part at equilibrium. Higher therefore signals weaker binding. As a reminder, the IC50 is the concentration that inhibits the measured activity by half.

Assay [1] addresses T1, KIT kinase (Homo sapiens, UniProt P10721).
T1 construct: made in house; host or cells: T7 phage display or HEK-293 cells
The assay can be described thus: Competition binding assay, KIT Kd. The method, then:
(§1) In certain embodiments, competition binding assays were performed as described in Fabian et al., Nature Biotechnology 2005, 23,329-336.
(§2) Competition binding assays used herein were developed, validated and performed as described in Fabian et al., Nature Biotechnology 2005, 23,329-336. Kinases were produced as fusions to T7 phage (See, Fabian et al. or WO04/015142) or alternatively, the kinases were expressed in HEK-293 cells and subsequently tagged with DNA for PCR detection (See, WO08/005,310). For the binding assays, streptavidin-coated magnetic beads were treated with biotinylated affinity ligands for 30 min at room temperature to generate affinity resins. The liganded beads were blocked with excess biotin and washed with blocking buffer (SeaBlock (Pierce), 1% BSA, 0.05% Tween 20, 1 mM DTT) to remove unbound ligand and to reduce non-specific binding. Binding reactions were assembled by combining kinase, liganded affinity beads, and test compounds in 1× binding buffer (20% SeaBlock, 0.17×PBS, 0.05% Tween 20, 6 mM DTT). Test compounds were prepared as 100× stocks in DMSO and diluted into the aqueous environment. Kds were determined using an eleven point threefold serial dilutions. DMSO or control compounds were was added to control assays lacking a test compound. Primary screen assays were performed in polypropylene 384-well plates in a final volume of 20-40 μL, while Kd determinations were performed in polystyrene 96-well plates in a final volume of 135 μL. The assay plates were incubated at room temperature with shaking for 1 hour to allow the binding reactions to reach equilibrium, and the affinity beads were washed extensively with wash buffer (1×PBS, 0.05% Tween 20) to remove unbound protein. The beads were then resuspended in elution buffer (1×PBS, 0.05% Tween 20, 0.5 μM non-biotinylated affinity ligand) and incubated at room temperature with shaking for 30 min. The kinase concentration in the eluates was measured by quantitative PCR.

The test system of assay [2] is MV4-11 cells. Description: MV4-11 cell proliferation assay (Alamar Blue). To be noted: Homo sapiens, MV4-11, 72 h, 3 days incubation. The class given is cell-based. On the procedure: The compounds disclosed herein were tested in an MV4-11 cell proliferation assay to determine their cellular potency against Flt3. MV4-11 cells carry ITD mutation within juxtamembrane domain of Flt3 kinase which renders the kinase constitutively active. […] This assay measures the potency of compounds as Flt3 inhibitors by measuring the reduction of Alamar Blue reagent by viable cells.
MV4-11 cells were grown in an incubator at 37° C. under 5% CO2 in Iscove's media (Celgro) with 10% FBS. The cell density was kept between 1e5 and 8e5 cells/mL.
On day one of the experiment, cells were harvested and spun at 500 g for 5 min at 4° C., the supernatant aspirated and the cells resuspended in Iscove's media with 0.5% FBS. Cell density was maintained at 7.5e5 to achieve maximum viability of the cells. The resuspended cells were incubated at 37° C. in 5% CO2 overnight.
On day two of the experiment, cells were diluted to 6.4e5/mL with Iscove's media with 0.5% FBS. 100 μL of the cell suspension (64,000 cells) were aliquoted into each well of a 96-well TC-treated plate. Compounds were added at 9 different concentrations, with half-log intervals alongside a control reference compound serving as a positive control. Final DMSO concentration was kept at 0.5% and final volume at 200 μL. The cells were then incubated at 37° C. under 5% CO2 for 3 days.
On day five of the experiment, 40 μL of Alamar Blue reagent was added to each well and the mixture was allowed to incubate for 3 hours. Alamar Blue fluorescence was measured using SoftMax Pro software at 560 nm (excitation) and 590 nm (emission). IC50s were generated as an average of duplicates and represents the concentration of test compound that achieves 50% inhibition of cellular proliferation compared to negative control.
On the technique in general: Resazurin is reduced to fluorescent resorufin, in cell work by metabolically active cells.

Assay [3] has as its target T2, FLT3 kinase (Homo sapiens, UniProt P36888).
T2 construct: made in house; host or cells: T7 phage display or HEK-293 cells
T2 sequence (P36888 27-993): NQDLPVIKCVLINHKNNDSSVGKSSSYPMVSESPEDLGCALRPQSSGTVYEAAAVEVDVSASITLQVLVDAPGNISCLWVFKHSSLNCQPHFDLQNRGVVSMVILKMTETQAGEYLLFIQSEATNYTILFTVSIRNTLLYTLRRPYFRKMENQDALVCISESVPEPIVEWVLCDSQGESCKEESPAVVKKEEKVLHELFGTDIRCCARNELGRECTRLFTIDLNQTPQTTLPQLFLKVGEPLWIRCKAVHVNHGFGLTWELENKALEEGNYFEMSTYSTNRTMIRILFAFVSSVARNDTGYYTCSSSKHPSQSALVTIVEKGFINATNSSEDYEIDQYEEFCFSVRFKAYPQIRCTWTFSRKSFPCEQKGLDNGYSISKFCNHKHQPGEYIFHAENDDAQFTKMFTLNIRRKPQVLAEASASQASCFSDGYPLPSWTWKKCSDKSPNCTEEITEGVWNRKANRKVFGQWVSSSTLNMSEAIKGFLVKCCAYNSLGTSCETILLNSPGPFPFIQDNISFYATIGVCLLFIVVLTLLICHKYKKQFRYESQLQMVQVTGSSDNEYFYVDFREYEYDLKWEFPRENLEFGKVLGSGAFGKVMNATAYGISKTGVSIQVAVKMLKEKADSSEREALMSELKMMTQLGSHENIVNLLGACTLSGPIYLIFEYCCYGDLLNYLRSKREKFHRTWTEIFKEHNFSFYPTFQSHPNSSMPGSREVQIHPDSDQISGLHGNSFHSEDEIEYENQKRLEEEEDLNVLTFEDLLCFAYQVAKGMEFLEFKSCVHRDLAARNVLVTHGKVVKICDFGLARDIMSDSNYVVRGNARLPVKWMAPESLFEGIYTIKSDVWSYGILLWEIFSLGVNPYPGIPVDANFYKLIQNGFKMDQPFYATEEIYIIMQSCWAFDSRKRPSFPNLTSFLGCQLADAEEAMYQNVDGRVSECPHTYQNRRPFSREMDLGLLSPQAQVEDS
Description: Competition binding assay, FLT3 Kd. The method, then:
as §1, §2

Assay [4] deals with T3, CSF-1R kinase (Homo sapiens, UniProt P07333).
T3 construct: made in house; host or cells: T7 phage display or HEK-293 cells
T3 sequence (P07333 20-972): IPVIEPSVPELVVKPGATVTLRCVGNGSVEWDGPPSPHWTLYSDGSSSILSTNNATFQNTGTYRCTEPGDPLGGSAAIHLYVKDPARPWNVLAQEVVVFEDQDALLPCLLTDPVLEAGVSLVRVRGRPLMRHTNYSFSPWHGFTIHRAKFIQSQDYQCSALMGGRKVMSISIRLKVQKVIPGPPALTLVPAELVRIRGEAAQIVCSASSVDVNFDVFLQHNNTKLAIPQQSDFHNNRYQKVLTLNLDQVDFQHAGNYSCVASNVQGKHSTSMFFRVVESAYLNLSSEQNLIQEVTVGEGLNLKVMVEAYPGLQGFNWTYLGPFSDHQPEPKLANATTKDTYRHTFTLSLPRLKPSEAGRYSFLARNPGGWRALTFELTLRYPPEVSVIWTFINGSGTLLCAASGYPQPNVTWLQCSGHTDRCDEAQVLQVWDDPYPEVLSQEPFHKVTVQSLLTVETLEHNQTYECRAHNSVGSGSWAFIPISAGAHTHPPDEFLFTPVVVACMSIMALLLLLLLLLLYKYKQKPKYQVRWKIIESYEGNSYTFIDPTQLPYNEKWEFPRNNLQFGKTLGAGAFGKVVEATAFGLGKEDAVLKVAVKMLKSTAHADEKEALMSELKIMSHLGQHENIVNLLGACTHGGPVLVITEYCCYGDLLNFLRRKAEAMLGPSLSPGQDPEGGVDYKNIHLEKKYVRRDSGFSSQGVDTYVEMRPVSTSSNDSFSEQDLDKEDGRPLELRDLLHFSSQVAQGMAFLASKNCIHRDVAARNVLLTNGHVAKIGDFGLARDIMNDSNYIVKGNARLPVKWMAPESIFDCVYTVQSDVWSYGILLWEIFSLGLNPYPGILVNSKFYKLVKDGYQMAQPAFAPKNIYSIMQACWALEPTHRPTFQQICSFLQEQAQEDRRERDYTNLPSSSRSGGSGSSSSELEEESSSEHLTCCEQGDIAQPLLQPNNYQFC
The assay can be described thus: Competition binding assay, CSF-1R Kd. The method, then:
as §1, §2

Molecules are shown by their SMILES.

T1 sequence (P10721 26-976): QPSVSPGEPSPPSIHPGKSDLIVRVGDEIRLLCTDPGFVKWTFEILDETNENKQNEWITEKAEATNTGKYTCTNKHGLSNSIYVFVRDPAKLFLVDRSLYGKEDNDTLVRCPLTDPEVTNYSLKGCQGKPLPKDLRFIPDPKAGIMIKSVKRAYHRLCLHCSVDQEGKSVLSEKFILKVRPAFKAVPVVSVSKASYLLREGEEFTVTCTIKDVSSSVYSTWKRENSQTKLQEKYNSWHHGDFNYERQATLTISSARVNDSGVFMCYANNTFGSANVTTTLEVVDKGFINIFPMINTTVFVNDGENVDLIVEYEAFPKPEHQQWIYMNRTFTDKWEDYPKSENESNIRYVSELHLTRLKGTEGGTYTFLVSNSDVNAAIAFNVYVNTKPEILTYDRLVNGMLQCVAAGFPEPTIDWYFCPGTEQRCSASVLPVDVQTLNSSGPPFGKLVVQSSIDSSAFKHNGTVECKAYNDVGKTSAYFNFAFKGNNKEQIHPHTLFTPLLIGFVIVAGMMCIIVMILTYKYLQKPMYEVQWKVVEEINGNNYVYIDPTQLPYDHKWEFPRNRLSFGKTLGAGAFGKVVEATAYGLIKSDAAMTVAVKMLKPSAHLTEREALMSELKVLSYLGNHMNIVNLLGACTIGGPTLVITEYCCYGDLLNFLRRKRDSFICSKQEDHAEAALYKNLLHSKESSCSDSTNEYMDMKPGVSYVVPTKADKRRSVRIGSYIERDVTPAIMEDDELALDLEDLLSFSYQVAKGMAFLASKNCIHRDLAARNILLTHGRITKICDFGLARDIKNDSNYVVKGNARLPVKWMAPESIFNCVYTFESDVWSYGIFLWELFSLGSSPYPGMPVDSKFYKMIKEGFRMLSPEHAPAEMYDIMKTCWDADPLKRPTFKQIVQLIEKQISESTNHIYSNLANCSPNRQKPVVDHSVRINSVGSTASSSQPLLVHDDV

For `CC(C)(c1cc(NC(=O)Nc2ccc(-c3ccc(NCCN4CCOCC4)nc3)cc2)no1)C(F)(F)F` [Example 39, 4-(2-(5-(4-(3-(5-(1,1,1-trifluoro-2-methylpropan-2-yl)isoxazol-3-yl)ureido)phenyl)pyridin-2-ylamino)ethyl)morpholin-4-ium methanesulfonate], the Kd is 1 to 10 nM in assay [1], ≤ 1 nM in assay [3] and ≤ 10 nM in assay [4]. This compound also showed an IC50 in assay [2] of 1 to 10 nM.

Regarding `Nc1ccc(-c2ccc(NC(=O)Nc3cc(C4(C(F)(F)F)CC4)on3)nc2)cn1` [Example 40, 1-(6′-amino-3,3′-bipyridin-6-yl)-3-(5-(1-(trifluoromethyl)cyclopropyl)isoxazol-3-yl)urea], the dissociation constant Kd in assay [1] was ≤ 1 nM; in assay [3], ≤ 1 nM; in assay [4], ≤ 10 nM. Further, the IC50 in assay [2] is 1 to 10 nM.

Take `CC(CF)(CF)c1cc(NC(=O)Nc2ccc(-c3ccc(N)nc3)cn2)no1` [Example 41, 1-(6′-amino-3,3′-bipyridin-6-yl)-3-(5-(1,3-difluoro-2-methylpropan-2-yl)isoxazol-3-yl)urea]: the results for the Kd in assay [1], in assay [3] and in assay [4] were ≤ 1 nM, ≤ 1 nM and ≤ 10 nM, respectively. In addition, the IC50 in assay [2] was in the range of 1 to 10 nM.

In the case of `CC(C)(F)c1cc(NC(=O)Nc2ccc(-c3ccc(N)nc3)cn2)on1` [Example 42, 1-(6′-amino-3,3′-bipyridin-6-yl)-3-(3-(2-fluoropropan-2-yl)isoxazol-5-yl)urea], the equilibrium dissociation constant (Kd) in assay [1] was ≤ 1 nM; in assay [3], 1 to 10 nM; in assay [4], ≤ 10 nM. Besides, the 50% inhibitory concentration (IC50) in assay [2] is 10 to 100 nM.

For `CC(C)(c1cc(NC(=O)Nc2ccc(-c3ccc(N)nc3)cn2)no1)C(F)(F)F` [Example 43, 1-(6′-amino-3,3′-bipyridin-6-yl)-3-(5-(1,1,1-trifluoro-2-methylpropan-2-yl)isoxazol-3-yl)urea], the Kd in assay [1] was ≤ 1 nM; in assay [3], ≤ 1 nM; in assay [4], ≤ 10 nM. Moreover, the concentration for half-maximal inhibition (IC50) in assay [2] is 1 to 10 nM.

As to `COc1cc(-c2ccc(N)nc2)ccc1NC(=O)Nc1cc(C(C)(CF)CF)on1` [Example 68, 5-(4-(3-(5-(1,3-difluoro-2-methylpropan-2-yl)isoxazol-3-yl)ureido)-3-methoxyphenyl)pyridin-2-aminium methanesulfonate], the Kd in assay [1] is 1 to 10 nM; in assay [3], 1 to 10 nM; in assay [4], ≤ 10 nM. In assay [2], this compound showed an IC50 of 10 to 100 nM.

`COc1cc(-c2ccc(N)nc2)ccc1NC(=O)Nc1cc(C(C)(C)C)on1` [Example 69, 5-(4-(3-(5-tert-butylisoxazol-3-yl)ureido)-3-methoxyphenyl)pyridin-2-aminium methanesulfonate]: the dissociation constant (Kd) in assay [1] is ≤ 1 nM; in assay [3], 1 to 10 nM; in assay [4], ≤ 10 nM. In assay [2], this compound came in with a 50% inhibitory concentration (IC50) of 10 to 100 nM.

In the case of `CC(C)(C)c1cc(NC(=O)Nc2ccc(-c3ccc(N)nc3)cc2)on1` [Example 70, 5-(4-(3-(3-tert-butylisoxazol-5-yl)ureido)phenyl)pyridin-2-aminium methanesulfonate], the values for the dissociation constant Kd in assay [1], in assay [3] and in assay [4] were 1 to 10 nM, 1 to 10 nM and ≤ 10 nM, respectively. In assay [2], the IC50 was ≤ 1 nM.

On to `CC(C)(c1cc(NC(=O)Cc2ccc(-c3ccc(N)nc3)cc2)no1)C(F)(F)F` [Example 72, 5-(4-(2-oxo-2-(5-(1,1,1-trifluoro-2-methylpropan-2-yl)isoxazol-3-ylamino)ethyl)phenyl)pyridin-2-aminium acetate], for which the figures for the Kd in assay [1], in assay [3] and in assay [4] were 1 to 10 nM, ≤ 1 nM and ≤ 10 nM, respectively. Also, in assay [2], the 50% inhibitory concentration (IC50) was ≤ 1 nM.

With `CC(C)(C)c1cc(NC(=O)Cc2ccc(-c3cnc(N)nc3)cc2)no1` [Example 74, 2-(4-(2-aminopyrimidin-5-yl)phenyl)-N-(5-tert-butylisoxazol-3-yl)acetamide], the results for the equilibrium dissociation constant (Kd) in assay [1], in assay [3] and in assay [4] were 1 to 10 nM, ≤ 1 nM and ≤ 10 nM, respectively. Moreover, the IC50 in assay [2] was ≤ 1 nM.

As to `CC(C)(C)c1cc(NC(=O)Cc2ccc(-c3cnc(NCCN4CCOCC4)nc3)cc2)no1` [Example 75, N-(5-tert-butylisoxazol-3-yl)-2-(4-(2-(2-morpholinoethylamino)pyrimidin-5-yl)phenyl)acetamide], the equilibrium dissociation constant (Kd) is 1 to 10 nM in assay [1], ≤ 1 nM in assay [3] and ≤ 10 nM in assay [4]. The 50% inhibitory concentration (IC50) in assay [2] is ≤ 1 nM.

Take `CC(C)(C)c1cc(NC(=O)Cc2ccc(-c3ccc(N)nc3)cn2)no1` [Example 76, 2-(6′-amino-3,3′-bipyridin-6-yl)-N-(5-tert-butylisoxazol-3-yl)acetamide]: the Kd was ≤ 1 nM in assay [1], ≤ 1 nM in assay [3] and ≤ 10 nM in assay [4]. This compound displayed a half-inhibitory concentration (IC50) in assay [2] of 1 to 10 nM.

As to `CC(C)(C)c1cc(NC(=O)Cc2ccc(-c3cnc(N)nc3)cn2)no1` [Example 77, 2-(5-(2-aminopyrimidin-5-yl)pyridin-2-yl)-N-(5-tert-butylisoxazol-3-yl)acetamide], the Kd is 1 to 10 nM in assay [1], ≤ 1 nM in assay [3] and ≤ 10 nM in assay [4]. Also, in assay [2], the IC50 lay in the range of 1 to 10 nM.

In the case of `CC(C)(C)c1cc(NC(=O)Cc2ccc(-c3cnc(N)nc3)cc2F)no1` [Example 79, 2-(4-(2-aminopyrimidin-5-yl)-2-fluorophenyl)-N-(5-tert-butylisoxazol-3-yl)acetamide], the results for the Kd in assay [1], in assay [3] and in assay [4] were 1 to 10 nM, ≤ 1 nM and ≤ 10 nM, respectively. Besides, the 50% inhibitory concentration (IC50) in assay [2] was ≤ 1 nM.

Turning to `CC(C)(CO)c1cc(NC(=O)Nc2ccc(-c3ccc(N)nc3)cc2)no1` [Example 80, 1-(4-(6-aminopyridin-3-yl)phenyl)-3-(5-(1-hydroxy-2-methylpropan-2-yl)isoxazol-3-yl)urea], the dissociation constant (Kd) is ≤ 1 nM in assay [1], ≤ 1 nM in assay [3] and ≤ 10 nM in assay [4]. For the same compound, the 50% inhibitory concentration (IC50) in assay [2] was 1 to 10 nM.
